Test results reported in patent US4166125A, “2-Oxo-phenylbutanoic acid derivatives” (Grelan Pharmaceutical Co., Ltd., priority 1977, dated 1979).

Experiments:
[1] = tested on: adjuvant arthritis; experiment: Inhibition to adjuvant arthritis (oral administration); type: in vivo, rat (Sprague-Dawley strain); conditions: for Increase in body weight / Weight of the organs: Adrenal glands / Weight of the organs: Spleen / Weight of the organs: Thymus: once a day for 7 days
Procedure: Inhibition to adjuvant arthritis.
According to a method conforming to Fujihira et al [Oyo Yakuri, 5, 169, (1971)], liquid paraffin suspension of Mycobacterium butiricum (hereinafter abbreviated as adjuvant) was injected subcutaneously to right hind paws of male rats (Spraque-Dawley strain) weighing 150 to 170 g in an amount of 0.3 mg/0.05 ml/rat. 14 Days after adjuvant injection, the rats, paws of which swelled to a similar degree, were selected and they were separated into groups. From the 15th day after adjuvant injection, each test compound suspended in 0.3% CMC-Na solution was orally administered once a day for 7 days to the 7 rats in each group in the dose shown in the following table 2.
The 16th, 19th and 22nd days after adjuvant injection the volume of left hand paws (i.e. paws not treated with the adjuvant) of the rats and their body weight were measured. Inhibition percent to the arthritis (edema) is calculated according to the same equation as that used in Experiment 1, and the value of ED40 is calculated on the basis of the inhibition percent. Then the rats were sacrificed with ether and the weight of their thymus, adrenal glands and spleen was determined.

[2] = tested on: mice; experiment: Acute toxicity (1) (oral administration); type: in vivo; conditions: mice
Procedure: (§1) After administration of the compound, the number of mice that died during 7 days was observed, and LD50 value was calculated on the basis of the mortality.

[3] = Acute toxicity (1) (oral administration); type: in vivo; conditions: in vivo; mouse, oral, 7 days
Procedure: as §1

[4] = tested on: pain threshold of hind paws (Brewer's yeast); experiment: Analgesic activity, Randall and Selitto method (oral administration); type: in vivo, rat (Sprague-Dawley strain)
Procedure: Randall and Selitto method
According to a method conforming to Randall, L. O. and Selitto, J. J. [Archives Internationales de Pharmacodynamie et de Therapie, 111, 409, (1957)], 0.1 ml of 10% Brewer's yeast suspension in physiological saline was injected subcutaneously into the plantar surface of the right hind paws of 5 male rats in each group (Sprague-Dawley strain) weighing 90 to 110 g. 2 Hours after administration of the yeast suspension, each test compound suspended in 0.3% CMC-Na solution was orally administered to the rats in an amount of 1.0 ml per 100 g of body weight of the rat. 30 Minutes, 60 minutes and 120 minutes after administration of the test compounds, threshold values of left and right hind paws of the rats were measured by an electric pressure device made by Daiwa Kinzoku Co., Ltd. (Japan). The change of threshold was obtained by comparing the pain threshold obtained in a group after the yeast injection with that obtained before the yeast injection, in the same group as above. Increasing percent of pain threshold of the test compound was calculated on the basis of the mean changes of threshold of the test group and of that of the control group. Rats of the control group were administered orally only 0.3% CMC-Na solution.
According to the Litchfield-Wilcoxon method [The Journal of Pharmacology and Experimental Therapeutics, 96, 96, (1949)], ED50 value was calculated as follows on the basis of the increasing percent of pain threshold;

[5] = tested on: febrile body temperature (Brewer's yeast); experiment: Antipyretic activity (oral administration); type: in vivo, rat (Sprague-Dawley strain); conditions: 250 mg/Kg oral
Procedure: Antipyretic activity (oral administration)
According to a method conforming to Winter, C. A. et al [The Journal of Pharmacology and Experimental Therapeutics 133, 117, (1961)], 20% Brewer's yeast suspension in physiological saline was injected subcutaneously to 5 male rats in each group (Sprague-Dawley strain) weighing 200 to 250 g in an amount of 1.0 ml per 100 g of body weight of the rat. After fasting for 18 hours, each test compound suspended in 1% gum arabic solution was administered orally to the rats in an amount of 1.0 ml per 100 g of body weight. Then, the rectal temperature of the rats was taken.

[6] = oral, 500, 1000, 2000 and 4000 mg/Kg, 7 days

CC(C(=O)C(N)=O)c1ccc(N2Cc3ccccc3C2=O)cc1 (stereo not drawn) [2-oxo-3-[4-(1-oxo-2-isoindolinyl)phenyl]butanamide]
Inhibition to adjuvant arthritis ([1]; 25 mg/Kg oral, 1st day): 24.0% | Inhibition to adjuvant arthritis ([1]; 25 mg/Kg oral, 4th day): 25.1% | Inhibition to adjuvant arthritis ([1]; 25 mg/Kg oral, 7th day): 35.2% | Increase in body weight ([1]; 25 mg/Kg oral): 28.4 g | Weight of the organs: Adrenal glands ([1]; 25 mg/Kg oral): 12.5 ± 1.3 mg/100g of body weight | Weight of the organs: Spleen ([1]; 25 mg/Kg oral): 441.1 ± 39.6 mg/100g of body weight | Weight of the organs: Thymus ([1]; 25 mg/Kg oral): 146.0 ± 7.3 mg/100g of body weight | Inhibition to adjuvant arthritis ([1]; 100 mg/Kg oral, 1st day): 32.7% | Inhibition to adjuvant arthritis ([1]; 100 mg/Kg oral, 4th day): 34.5% | Inhibition to adjuvant arthritis ([1]; 100 mg/Kg oral, 7th day): 45.3% | Increase in body weight ([1]; 100 mg/Kg oral): 40.7 g | Weight of the organs: Adrenal glands ([1]; 100 mg/Kg oral): 11.5 ± 0.7 mg/100g of body weight | Weight of the organs: Spleen ([1]; 100 mg/Kg oral): 414.2 ± 28.8 mg/100g of body weight | Weight of the organs: Thymus ([1]; 100 mg/Kg oral): 147.2 ± 15.6 mg/100g of body weight | Macroscopic observation of organs in head, thorax and abdominal cavity ([2]; after 7 days): No abnormality was observed | Abnormal behaviour [2, 6]: not observed | Death [2, 6]: not observed | Inhibition to increase of body weight [2, 6]: not observed | LD50 at 168 h [3]: > 4000 mg/kg | Increasing percent of pain threshold ([4]; 25 mg/Kg oral, 30 minutes after administration): 15.6 ± 10.3% | Increasing percent of pain threshold ([4]; 25 mg/Kg oral, 60 minutes after administration): 14.1 ± 13.7% | Increasing percent of pain threshold ([4]; 25 mg/Kg oral, 120 minutes after administration): 22.1 ± 18.5% | Increasing percent of pain threshold ([4]; 50 mg/Kg oral, 30 minutes after administration): 46.9 ± 4.6% | Increasing percent of pain threshold ([4]; 50 mg/Kg oral, 60 minutes after administration): 32.7 ± 5.9% | Increasing percent of pain threshold ([4]; 50 mg/Kg oral, 120 minutes after administration): 48.6 ± 9.0% | Increasing percent of pain threshold ([4]; 100 mg/Kg oral, 30 minutes after administration): 46.1 ± 6.6% | Increasing percent of pain threshold ([4]; 100 mg/Kg oral, 60 minutes after administration): 32.4 ± 7.0% | Increasing percent of pain threshold ([4]; 100 mg/Kg oral, 120 minutes after administration): 39.0 ± 7.3% | Increasing percent of pain threshold ([4]; 200 mg/Kg oral, 30 minutes after administration): 57.3 ± 14.8% | Increasing percent of pain threshold ([4]; 200 mg/Kg oral, 60 minutes after administration): 39.7 ± 8.9% | Increasing percent of pain threshold ([4]; 200 mg/Kg oral, 120 minutes after administration): 39.6 ± 6.5% | ED50 ([4]; Rattus norvegicus, oral, Litchfield-Wilcoxon method, from increasing percent of pain threshold): 100 mg/kg | Drop of febrile body temperature [5]: 1 °C
